Measurements as given in BindingDB's records for doi:10.1111/j.1747-0285.2007.00617.x (Burnham Institute For Medical Research, 2008).
pIC50: −log10 of the molar value.

Experiments:
[1] = biological target: Matrix metalloproteinase-9 (Homo sapiens, UniProt P14780); assay: MMP Inhibition Assay
Procedure: (§1) This assay was performed as outlined in the Anaspec MMP assay kit. The fluorescence peptide cleavage assay was performed in a 96-well plate in which each reaction mixture contained 5-FAM / QXL520 and activated MMP-2 or MMP-9 in assay buffer, and the screening compounds.

[2] = biological target: 72 kDa type IV collagenase (Homo sapiens, UniProt P08253); assay: MMP Inhibition Assay
Procedure: as §1

Chain of Matrix metalloproteinase-9 (P14780 whole entry): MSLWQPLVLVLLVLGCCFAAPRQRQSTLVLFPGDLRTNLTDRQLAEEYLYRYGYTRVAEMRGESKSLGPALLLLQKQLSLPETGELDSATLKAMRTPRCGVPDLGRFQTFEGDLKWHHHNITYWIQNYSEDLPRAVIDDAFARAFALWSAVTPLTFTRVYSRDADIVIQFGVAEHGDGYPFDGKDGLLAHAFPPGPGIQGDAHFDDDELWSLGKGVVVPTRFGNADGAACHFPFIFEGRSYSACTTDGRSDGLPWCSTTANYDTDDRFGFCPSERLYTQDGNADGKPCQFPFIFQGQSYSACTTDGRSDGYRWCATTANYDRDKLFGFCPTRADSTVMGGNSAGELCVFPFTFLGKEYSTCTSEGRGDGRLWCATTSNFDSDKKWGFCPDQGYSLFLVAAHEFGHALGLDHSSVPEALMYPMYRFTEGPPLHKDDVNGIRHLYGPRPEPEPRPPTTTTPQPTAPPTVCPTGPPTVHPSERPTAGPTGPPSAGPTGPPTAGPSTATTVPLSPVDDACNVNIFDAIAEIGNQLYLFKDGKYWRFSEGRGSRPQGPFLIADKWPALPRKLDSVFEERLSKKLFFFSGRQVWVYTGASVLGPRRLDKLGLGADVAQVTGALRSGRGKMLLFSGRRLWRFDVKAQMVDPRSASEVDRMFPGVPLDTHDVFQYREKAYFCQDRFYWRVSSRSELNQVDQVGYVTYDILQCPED
Chain of 72 kDa type IV collagenase (P08253 whole entry): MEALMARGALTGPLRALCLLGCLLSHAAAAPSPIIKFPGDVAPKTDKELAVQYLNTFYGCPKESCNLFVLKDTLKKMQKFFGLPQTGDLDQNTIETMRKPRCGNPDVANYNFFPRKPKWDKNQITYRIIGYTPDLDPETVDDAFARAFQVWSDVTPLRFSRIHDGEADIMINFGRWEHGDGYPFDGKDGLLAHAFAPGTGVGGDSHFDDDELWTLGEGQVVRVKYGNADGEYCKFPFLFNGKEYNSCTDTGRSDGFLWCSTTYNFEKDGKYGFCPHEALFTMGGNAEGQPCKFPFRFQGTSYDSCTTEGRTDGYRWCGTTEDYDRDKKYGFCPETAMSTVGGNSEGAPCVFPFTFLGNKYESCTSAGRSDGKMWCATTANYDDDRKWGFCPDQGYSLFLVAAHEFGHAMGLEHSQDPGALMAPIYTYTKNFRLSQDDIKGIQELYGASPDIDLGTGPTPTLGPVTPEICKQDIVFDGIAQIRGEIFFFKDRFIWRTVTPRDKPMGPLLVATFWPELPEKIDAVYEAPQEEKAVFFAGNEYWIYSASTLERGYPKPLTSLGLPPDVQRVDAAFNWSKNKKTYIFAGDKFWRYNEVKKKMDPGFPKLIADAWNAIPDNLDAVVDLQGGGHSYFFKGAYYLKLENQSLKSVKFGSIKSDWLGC

| SMILES | pIC50 [1] | pIC50 [2] |
| --- | --- | --- |
| O=C(O)CN1C(=O)/C(=C/c2cc(-c3ccccc3)on2)SC1=S [2-[(5Z)-4-oxo-5-[(5-phenyl-1,2-oxazol-3-yl)methylidene]-2-sulfanylidene-1,3-thiazolidin-3-yl]acetic acid] | 4.30 | < 4.00 |
| Cc1nc(/C=C2\SC(=S)N(CC(=O)O)C2=O)c(C)o1 [2-[(5Z)-5-[(2,5-dimethyl-1,3-oxazol-4-yl)methylidene]-4-oxo-2-sulfanylidene-1,3-thiazolidin-3-yl]acetic acid] | < 4.00 | < 4.00 |
| Cc1nc(-c2ccccc2)c(/C=C2\SC(=S)N(CC(=O)O)C2=O)s1 [2-[(5Z)-5-[(2-methyl-4-phenyl-1,3-thiazol-5-yl)methylidene]-4-oxo-2-sulfanylidene-1,3-thiazolidin-3-yl]acetic acid] | < 4.00 | < 4.00 |
| CC(C)(C)OC(=O)N1CCC(c2nc(/C=C3\SC(=S)N(CC(=O)O)C3=O)cs2)CC1 [2-[(5Z)-5-[(2-{1-[(tert-butoxy)carbonyl]piperidin-4-yl}-1,3-thiazol-4-yl)methylidene]-4-oxo-2-sulfanylidene-1,3-thiazolidin-3-yl]acetic acid] | < 4.00 | < 4.00 |
| O=C(O)CN1C(=O)/C(=C/c2c[nH]c3ccc(Br)cc23)SC1=S [2-[(5Z)-5-[(5-bromo-1H-indol-3-yl)methylidene]-4-oxo-2-sulfanylidene-1,3-thiazolidin-3-yl]acetic acid] | < 4.00 | – |
| O=C(O)CN1C(=O)/C(=C/c2cc(-c3ccc(Br)cc3)on2)SC1=S [2-[(5Z)-5-{[5-(4-bromophenyl)-1,2-oxazol-3-yl]methylidene}-4-oxo-2-sulfanylidene-1,3-thiazolidin-3-yl]acetic acid] | 4.56 | < 4.00 |
| O=C(O)CN1C(=O)/C(=C/c2cc(-c3ccc(Cl)cc3)on2)SC1=S [2-[(5Z)-5-{[5-(4-chlorophenyl)-1,2-oxazol-3-yl]methylidene}-4-oxo-2-sulfanylidene-1,3-thiazolidin-3-yl]acetic acid] | < 4.00 | 4.72 |
| O=C(O)CN1C(=O)/C(=C/c2cc(-c3ccc(F)cc3)on2)SC1=S [2-[(5Z)-5-{[5-(4-fluorophenyl)-1,2-oxazol-3-yl]methylidene}-4-oxo-2-sulfanylidene-1,3-thiazolidin-3-yl]acetic acid] | < 4.00 | 5.00 |
| COc1ccc(-c2cc(/C=C3\SC(=S)N(CC(=O)O)C3=O)no2)cc1 [2-[(5Z)-5-{[5-(4-methoxyphenyl)-1,2-oxazol-3-yl]methylidene}-4-oxo-2-sulfanylidene-1,3-thiazolidin-3-yl]acetic acid] | < 4.00 | 5.18 |
| Cc1ccc(-c2cc(/C=C3\SC(=S)N(CC(=O)O)C3=O)no2)cc1 [2-[(5Z)-5-{[5-(4-methylphenyl)-1,2-oxazol-3-yl]methylidene}-4-oxo-2-sulfanylidene-1,3-thiazolidin-3-yl]acetic acid] | < 4.00 | > 5.00 |
| O=C(O)CN1C(=O)/C(=C/c2cc(-c3ccco3)on2)SC1=S [2-[(5Z)-5-{[5-(furan-2-yl)-1,2-oxazol-3-yl]methylidene}-4-oxo-2-sulfanylidene-1,3-thiazolidin-3-yl]acetic acid] | < 4.00 | – |
